In patent US10328092B2, “Methods and compositions for treatment of drug addiction” (The Royal Institution for the Advancement of Learning / …, priority 2015, dated 2019):

Key:
[1] = system: primary rat microglia cultures; assay: TNFα mRNA in primary rat microglia cultures; type: cell-based
Experimental: For tissue, total RNA from the ventral striatum was extracted and isolated by RNAqueous-4PCR total RNA isolation kit (Ambion, AM1914), according to manufacturer's instructions. For microglia and astrocyte cultures, total RNA was isolated by RNeasy kit (Qiagen, 74136). For all sample types, 0.5 μg of total RNA was used for cDNA synthesis with Quantitect Reverse Transcription Kit (Qiagen, 205313), and quantitative RT-PCR was performed with Fast SYBR-Green Master Mix (Applied Biosystems) detected by StepOne Plus RealTime PCR system (Applied Biosystems). The sequences of qPCR primers used for mRNA quantification in this study were obtained from Integrated DNA Technologies, and are as follows: mouse TNFα forward, […] (SEQ ID NO: 1) [200 nM]; mouse TNFα reverse, […] (SEQ ID NO: 2) [200 nM]; mouse GAPDH forward, […] (SEQ ID NO: 3) [300 nM]; mouse GAPDH reverse, […] (SEQ ID NO: 4) [300 nM]; rat TNFα forward, […] (SEQ ID NO: 1) [600 nM]; rat TNFα reverse, […] (SEQ ID NO: 5) [600 nM]; rat cyclophilin forward, […] (SEQ ID NO: 6) [500 nM]; rat cyclophilin reverse, […] (SEQ ID NO: 7) [500 nM]. After 40 cycles, the Ct values were determined. To normalize the samples, ΔCt between TNFα and GADPH or cyclophilin Ct values was calculated. The x-fold difference in expression between the different treatments was then determined by subtraction of the ΔCt values and termed ΔΔCt. Finally, the total change was calculated as 2-ΔΔct and the relative amount compared with control samples was deducted.
Mixed microglia-astrocyte primary cultures were prepared from the striatum of postnatal rats (day 0), essentially as described (Beattie et al., 2002). Briefly, tissue was dissociated by […], and cells were seeded in glia media (MEM containing 5% FBS, 1.5% high sucrose MEM and 0.1% glutamax) on culture flasks (Corning) coated with poly-D lysine (Sigma) and placed in a humidified incubator at 37 C with 5% CO2. Neurons were removed by mechanical disruption and the medium was changed at day 1, and every 5-7 days after. […]

[2] = system: primary rat astrocyte cultures; conditions: dopamine 0.1 μm with ascorbic acid, 3 hours
Experimental: For tissue, total RNA from the ventral striatum was extracted and isolated by RNAqueous-4PCR total RNA isolation kit (Ambion, AM1914), according to manufacturer's instructions. For microglia and astrocyte cultures, total RNA was isolated by RNeasy kit (Qiagen, 74136). For all sample types, 0.5 μg of total RNA was used for cDNA synthesis with Quantitect Reverse Transcription Kit (Qiagen, 205313), and quantitative RT-PCR was performed with Fast SYBR-Green Master Mix (Applied Biosystems) detected by StepOne Plus RealTime PCR system (Applied Biosystems). The sequences of qPCR primers used for mRNA quantification in this study were obtained from Integrated DNA Technologies, and are as follows: mouse TNFα forward, […] (SEQ ID NO: 1) [200 nM]; mouse TNFα reverse, […] (SEQ ID NO: 2) [200 nM]; mouse GAPDH forward, […] (SEQ ID NO: 3) [300 nM]; mouse GAPDH reverse, […] (SEQ ID NO: 4) [300 nM]; rat TNFα forward, […] (SEQ ID NO: 1) [600 nM]; rat TNFα reverse, […] […] After 40 cycles, the Ct values were determined. To normalize the samples, ΔCt between TNFα and GADPH or cyclophilin Ct values was calculated. The x-fold difference in expression between the different treatments was then determined by subtraction of the ΔCt values and termed ΔΔCt. Finally, the total change was calculated as 2-ΔΔct and the relative amount compared with control samples was deducted. […]

adult microglial cells = assay: TNFα mRNA in cultured adult mouse microglia; type: cell-based; conditions: dopamine 0.1 μm, 3 hours; not significant p=0.057
Experimental: (SEQ ID NO: 1) [200 nM]; mouse TNFα reverse, […] (SEQ ID NO: 2) [200 nM]; mouse GAPDH forward, […] (SEQ ID NO: 3) [300 nM]; mouse GAPDH reverse, […] (SEQ ID NO: 4) [300 nM]; rat TNFα forward, […] (SEQ ID NO: 1) [600 nM]; rat TNFα reverse, […] (SEQ ID NO: 5) [600 nM]; rat cyclophilin forward, […] (SEQ ID NO: 6) [500 nM]; rat cyclophilin reverse, […] (SEQ ID NO: 7) [500 nM]. After 40 cycles, the Ct values were determined.
Adult male C57BL/6 mice (8-12 weeks) underwent cardiac perfusion with Hank's Balanced Salt Solution (HBSS) and whole brains were removed. Cortices and striata were dissected, cut in to small pieces and subjected to enzymatic digestion with the Neural Tissue Dissociation Kit (P) (Miltenyi Biotech, US cat no. 130-092-628), as per manufactures instructions. Tissue was homogenised and resuspended in 35% isotonic Percoll, overlayed with HBSS and spun at 400 g for 45 mins for the removal of myelin. Pure populations of microglial cells were obtained through magnetic bead cell sorting using CD11b microbeads (Miltenyi, cat no. 130-093-634). Aliquots from positive and negative bead selected fractions were removed for cell staining to assess cell purity. […] Cells were acquired using a BD FACS Canto II and analyzed using BD FACSDiva software. […]

Cl.NCCc1ccc(O)c(O)c1 [dopamine, dopamine hydrochloride]
TNFα mRNA in microglia cultures [1]: significantly increased | TNFα production in astrocytes [2]: does not alter | TNFα mRNA, cultured adult microglia (adult microglial cells): 160 % of control
